Experimental data: ChEMBL document CHEMBL2331175, “On dihydroorotate dehydrogenases and their inhibitors and uses” (J Med Chem, 2013)
Each block holds one compound with its values, some of them ahead of it.

What was measured:
[1] = target: Voltage-gated inwardly rectifying potassium channel KCNH2 (Homo sapiens, UniProt Q12809); assay: Inhibition of human ERG channel overexpressed in Chinese hamster CHOK1 cells by whole cell voltage clamp assay; type: cell-based, CHO-K1
[2] = Half life in human; type: ADME, organism-based; conditions: in vivo
[3] = target: T1, Dihydroorotate dehydrogenase (quinone), mitochondrial (Homo sapiens, UniProt Q02127); assay: Inhibition of human purified recombinant DHODH
[4] = target: T1, Dihydroorotate dehydrogenase (quinone), mitochondrial; assay: Competitive inhibition of human purified recombinant DHODH in presence of cofactor ubiquinone
[5] = target: Dihydroorotate dehydrogenase (quinone), mitochondrial (Rattus norvegicus, UniProt Q63707); assay: Inhibition of rat purified recombinant DHODH
[6] = target: Dihydroorotate dehydrogenase (quinone), mitochondrial (Rattus norvegicus) (UniProt Q63707); assay: Competitive inhibition of rat purified recombinant DHODH in presence of cofactor ubiquinone
[7] = target: T2, Dihydroorotate dehydrogenase (Plasmodium falciparum, UniProt Q54A96); assay: Inhibition of plasmodium falciparum DHODH assessed as inhibition of [14C]bicarbonate incorporation into pyrimidine nucleotide by HPLC analysis
T2 sequence (Q54A96 whole entry): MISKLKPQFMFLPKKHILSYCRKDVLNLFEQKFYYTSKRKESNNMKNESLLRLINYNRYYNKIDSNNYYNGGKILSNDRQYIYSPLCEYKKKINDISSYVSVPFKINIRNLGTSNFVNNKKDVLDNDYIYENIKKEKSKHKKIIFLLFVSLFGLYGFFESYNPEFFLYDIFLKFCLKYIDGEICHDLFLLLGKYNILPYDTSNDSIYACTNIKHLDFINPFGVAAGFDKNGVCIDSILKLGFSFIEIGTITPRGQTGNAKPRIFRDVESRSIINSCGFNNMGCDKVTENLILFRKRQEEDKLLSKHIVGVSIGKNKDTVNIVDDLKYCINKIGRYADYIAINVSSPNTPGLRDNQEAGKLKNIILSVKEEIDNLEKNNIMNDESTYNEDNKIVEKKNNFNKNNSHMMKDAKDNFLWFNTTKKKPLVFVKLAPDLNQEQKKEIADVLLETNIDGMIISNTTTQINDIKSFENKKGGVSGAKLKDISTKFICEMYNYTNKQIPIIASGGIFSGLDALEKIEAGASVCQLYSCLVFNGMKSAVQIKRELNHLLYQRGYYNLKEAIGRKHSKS

T1 sequence (Q02127 whole entry): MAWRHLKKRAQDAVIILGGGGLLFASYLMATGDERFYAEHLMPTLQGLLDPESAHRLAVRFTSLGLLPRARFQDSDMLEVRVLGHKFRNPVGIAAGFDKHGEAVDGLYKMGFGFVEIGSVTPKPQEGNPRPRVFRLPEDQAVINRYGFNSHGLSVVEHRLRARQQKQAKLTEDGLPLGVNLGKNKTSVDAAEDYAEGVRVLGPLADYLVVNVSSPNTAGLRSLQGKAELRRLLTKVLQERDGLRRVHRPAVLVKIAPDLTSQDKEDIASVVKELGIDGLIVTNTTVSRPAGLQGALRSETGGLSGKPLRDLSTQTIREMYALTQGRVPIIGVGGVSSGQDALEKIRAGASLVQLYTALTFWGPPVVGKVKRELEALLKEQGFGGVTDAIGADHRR
Sequence of Dihydroorotate dehydrogenase (quinone), mitochondrial (Rattus norvegicus, UniProt Q63707) (Q63707 whole entry): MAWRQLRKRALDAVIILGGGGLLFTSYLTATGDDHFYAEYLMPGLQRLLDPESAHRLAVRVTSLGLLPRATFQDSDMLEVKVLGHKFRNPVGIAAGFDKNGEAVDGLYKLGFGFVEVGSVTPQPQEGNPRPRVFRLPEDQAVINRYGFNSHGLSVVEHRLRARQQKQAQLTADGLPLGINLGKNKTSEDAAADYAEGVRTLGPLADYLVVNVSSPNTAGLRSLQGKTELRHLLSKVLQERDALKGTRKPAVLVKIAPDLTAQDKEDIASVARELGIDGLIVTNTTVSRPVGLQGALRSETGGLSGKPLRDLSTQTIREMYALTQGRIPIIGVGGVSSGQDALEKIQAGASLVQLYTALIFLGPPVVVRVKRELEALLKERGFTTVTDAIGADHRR
Sequence of Dihydroorotate dehydrogenase (quinone), mitochondrial (Rattus norvegicus) (Q63707 whole entry): as above
Sequence of Voltage-gated inwardly rectifying potassium channel KCNH2 (Q12809 whole entry): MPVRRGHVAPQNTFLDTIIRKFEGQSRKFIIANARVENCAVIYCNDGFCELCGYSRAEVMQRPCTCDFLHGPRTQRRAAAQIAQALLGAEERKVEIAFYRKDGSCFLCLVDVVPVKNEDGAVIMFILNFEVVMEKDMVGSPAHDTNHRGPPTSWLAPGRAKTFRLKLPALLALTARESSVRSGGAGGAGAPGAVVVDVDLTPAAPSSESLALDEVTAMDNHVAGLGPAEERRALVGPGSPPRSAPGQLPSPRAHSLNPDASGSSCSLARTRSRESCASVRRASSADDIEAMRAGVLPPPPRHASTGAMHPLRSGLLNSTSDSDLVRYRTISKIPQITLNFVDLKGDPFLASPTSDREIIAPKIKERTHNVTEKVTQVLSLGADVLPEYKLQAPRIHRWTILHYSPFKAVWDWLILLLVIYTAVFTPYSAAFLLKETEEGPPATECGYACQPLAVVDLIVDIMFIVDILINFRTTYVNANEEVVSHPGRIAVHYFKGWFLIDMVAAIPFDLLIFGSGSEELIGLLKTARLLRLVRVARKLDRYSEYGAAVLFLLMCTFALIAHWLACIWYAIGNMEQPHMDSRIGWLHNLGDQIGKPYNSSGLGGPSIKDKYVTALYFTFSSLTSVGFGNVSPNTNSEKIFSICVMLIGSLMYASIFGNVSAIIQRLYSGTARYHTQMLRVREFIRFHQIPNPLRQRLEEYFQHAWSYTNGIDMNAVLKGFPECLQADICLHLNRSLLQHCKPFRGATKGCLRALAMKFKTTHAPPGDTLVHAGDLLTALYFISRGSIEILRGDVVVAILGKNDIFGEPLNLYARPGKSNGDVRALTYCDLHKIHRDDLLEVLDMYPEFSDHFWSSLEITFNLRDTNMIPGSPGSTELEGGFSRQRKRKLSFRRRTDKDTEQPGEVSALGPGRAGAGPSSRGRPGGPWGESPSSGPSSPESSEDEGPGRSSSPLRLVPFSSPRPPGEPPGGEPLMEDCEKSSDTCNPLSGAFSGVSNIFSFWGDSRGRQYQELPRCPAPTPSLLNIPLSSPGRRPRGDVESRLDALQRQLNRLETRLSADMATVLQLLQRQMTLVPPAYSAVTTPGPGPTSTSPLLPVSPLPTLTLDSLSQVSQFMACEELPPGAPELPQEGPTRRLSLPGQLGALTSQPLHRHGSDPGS

SMILES: Cc1nc2cc(OC(F)(F)F)ccc2n1-c1ccc(C(=O)NC2CC2)s1
IC50 [1]: < 2.8 µM

half-life [2]: 3.5 h
SMILES: Cc1cc(NC(=O)/C(C#N)=C(\O)C2CC2)ccc1C(F)(F)F

IC50 [3]: 14.5 µM
Kic [4]: 2.7 µM
IC50 [5]: 0.7 µM
Kic [6]: 60 nM
Ki [7]: 27 µM
SMILES: O=C1C(O)=C([C@H]2CC[C@H](c3ccc(Cl)cc3)CC2)C(=O)c2ccccc21 [ATOVAQUONE]

half-life [2]: > 336 h
SMILES: C/C(O)=C(\C#N)C(=O)Nc1ccc(C(F)(F)F)cc1 [TERIFLUNOMIDE]
